We go through 26 molecules from patent publication US9181181B2, “2-substituted-3-phenylpropionic acid derivatives and their use in the treatment of inflammatory bowel disease” (Albireo AB, priority 2007, dated 2015).

pEC50: −log10 of the molar value.

One experiment has as its target human PPARalpha (Homo sapiens (Human), UniProt Q07869). The experiment is described as follows: Transactivation (reporter gene) assay, GAL4-PPARalpha LBD in U-2 OS cells. In kind it is cell-based. To be noted: 40 h incubation, 16 μM ETYA as 100% control, read-out: EC50 PPARα. The method, then: (§1) Transactivation Assay Expression vectors were prepared by inserting the ligand binding domain cDNA (complementary DNA) of human PPARalpha (amino acid 168-468) and human PPARgamma (amino acid 205-505), 3′ to and in frame with, the yeast GAL4 transcription factor DNA binding domain and the nuclear localization signal from the T-antigen of Polyoma Virus into the mammalian expression vector pSGS (Stratagene). The resulting expression vectors pSGGAL-PPARalpha and pSGGAL-PPARgamma were used in co-transfection experiments together with a modified pGL3 promoter plasmid (Promega) containing five copies of the UAS GAL4 recognition site. 2.5 μg pSGGAL-PPARalpha or pSGGAL-PPARgamma were mixed with 25 μg pGL3p […] and 22.5 μg pBluescript (Stratagene) in 0.95 mL ice cold PBS containing between 9-12 million U-2 OS (human osteosarcoma) cells. The cell/DNA mixture was incubated on ice for 5 minutes and then divided between two 0.4 cm cuvettes and electroporated at 960 μF, 230 V using a BioRad electroporator. The two electroporation mixes were combined in assay medium [Dulbecco's Modified Eagle Medium w/o phenol red, (Gibco 11880-028) including 10% FBS (Foetal Bovine Serum), 1% PEST (Penicillin & Streptomycin), 20 mM Hepes, 2 mM L-Glutamine and 0.36% Glucose (Gibco 31966-021)] at 0.32 million cells/ml. 25 μl diluted, electroporated cells, were seeded into 384-well plates and allowed to adhere for 3-4 h at 37° C., 5% CO2 in a cell culture incubator. Test compounds in DMSO were diluted 40 fold in assay medium. 7 μl of diluted compound was added to the adhered electroporated cells and incubation was continued for 40 h in a cell culture incubator. Cells were lysed by adding 32 μl/well LucLite (Packard) and incubated at room temperature for 15 minutes. Luciferase activity was measured using a luminometry protocol on a Wallac Victor2 plate reader. 16 μM ETYA was used as the 100% control for humanPPARalpha activity and 16 μM Pioglitazone was used as the 100% control for humanPPARgamma activity. In Vivo Assay Determination of Plasma Clearance and Oral Bioavailability in Hamster or Mouse

The next experiment addresses human PPARgamma (Homo sapiens (Human), UniProt P37231). The experiment is described as follows: Transactivation (reporter gene) assay, GAL4-PPARgamma LBD in U-2 OS cells. In kind it is cell-based. The conditions noted are these: 40 h incubation, 16 μM Pioglitazone as 100% control, read-out: EC50 PPARγ. The method, then:
as §1

Sequence of human PPARgamma (P37231 205-505): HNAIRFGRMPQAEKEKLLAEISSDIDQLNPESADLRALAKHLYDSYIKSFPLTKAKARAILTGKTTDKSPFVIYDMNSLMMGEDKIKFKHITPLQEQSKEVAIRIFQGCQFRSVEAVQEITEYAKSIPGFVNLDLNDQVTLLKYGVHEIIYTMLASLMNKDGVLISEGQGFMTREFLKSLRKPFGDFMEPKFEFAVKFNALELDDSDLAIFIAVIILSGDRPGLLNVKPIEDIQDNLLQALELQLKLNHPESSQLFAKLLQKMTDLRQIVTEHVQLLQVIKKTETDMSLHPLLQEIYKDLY
Sequence of human PPARalpha (Q07869 168-468): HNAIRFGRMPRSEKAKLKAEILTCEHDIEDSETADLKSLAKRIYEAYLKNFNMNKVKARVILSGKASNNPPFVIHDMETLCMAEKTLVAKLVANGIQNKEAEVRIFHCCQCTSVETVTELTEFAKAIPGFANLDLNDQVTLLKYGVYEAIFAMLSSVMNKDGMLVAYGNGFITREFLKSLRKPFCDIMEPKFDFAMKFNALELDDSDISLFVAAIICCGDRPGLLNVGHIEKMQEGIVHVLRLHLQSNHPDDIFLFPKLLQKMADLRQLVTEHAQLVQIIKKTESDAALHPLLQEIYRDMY

Consider `Cc1oc(-c2ccccc2)nc1CCOC(=O)c1ccc(CC(SCCc2ccc(F)cc2)C(=O)O)cc1` (single isomer, unassigned) [Example 20, 4-{(−)-2-Carboxy-2-[2-(4-fluoro-phenyl)-ethylsulfanyl]-ethyl}-benzoic acid 2-(5-methyl-2-phenyl-oxazol-4-yl)-ethyl ester], for which the pEC50 was 6.08 at human PPARalpha and 7.14 at human PPARgamma.

Consider `Cc1oc(-c2ccccc2)nc1CC(=O)OCc1ccc(CC(SCCc2ccc(F)cc2)C(=O)O)cc1` (single isomer, unassigned; (-)) [Example 19, (−)-2-[2-(4-Fluoro-phenyl)-ethylsulfanyl]-3-{4-[2-(5-methyl-2-phenyl-oxazol-4-yl)-acetoxymethyl]-phenyl}-propionic acid], for which the negative logarithm of the EC50 (pEC50) on human PPARalpha was 7.14; on human PPARgamma it was 6.33.

On to `O=C(Cc1ccc(CC(SCCc2ccc(F)cc2)C(=O)O)cc1)OCc1ccc(C(F)(F)F)cc1` (stereo not shown) [Example 3, 2-[2-(4-Fluoro-phenyl)-ethylsulfanyl]-3-[4-(4-trifluoromethyl-benzyloxycarbonylmethyl)-phenyl]-propionic acid], for which the negative logarithm of the EC50 (pEC50) on human PPARalpha is 7.25; on human PPARgamma it was 5.77.

For the molecule `CS(=O)(=O)Oc1ccc(COC(=O)Cc2ccc(CC(SCCc3ccc(F)cc3)C(=O)O)cc2)cc1` (stereo not shown) [Example 4, 2-[2-(4-Fluoro-phenyl)-ethylsulfanyl]-3-[4-(4-methanesulfonyloxy-benzyloxycarbonylmethyl)-phenyl]-propionic acid], on human PPARalpha, the pEC50 is 5.85.

As for `CS(=O)(=O)Oc1ccc(CC(=O)OCCc2ccc(CC(SCCc3ccc(F)cc3)C(=O)O)cc2)cc1` (stereo not shown) [Example 5, 2-[2-(4-Fluoro-phenyl)-ethylsulfanyl]-3-(4-{2-[2-(4-methanesulfonyloxy-phenyl)-acetoxy]-ethyl}-phenyl)-propionic acid], the pEC50 at human PPARalpha was 6.70; on human PPARgamma it was 5.22.

In the case of `CS(=O)(=O)Oc1ccc(CC(=O)OCCCc2ccc(CC(SCCc3ccc(F)cc3)C(=O)O)cc2)cc1` (stereo not shown) [Example 6, 2-[2-(4-Fluoro-phenyl)-ethylsulfanyl]-3-(4-{3-[2-(4-methanesulfonyloxy-phenyl)-acetoxy]-propyl}-phenyl)-propionic acid], the pEC50 at human PPARalpha is 6.48; on human PPARgamma, 4.74.

Regarding `CC(C(=O)OCc1ccc(CC(SCCc2ccc(F)cc2)C(=O)O)cc1)c1ccccc1` (stereo not shown) [Example 7, 2-[2-(4-Fluoro-phenyl)-ethylsulfanyl]-3-[4-(2-phenyl-propionyloxymethyl)-phenyl]-propionic acid], the values for the pEC50 at human PPARalpha and at human PPARgamma were 4.74 and 5.77, respectively.

`COc1ccc(CC(=O)OCc2ccc(CC(SCCc3ccc(F)cc3)C(=O)O)cc2)cc1` (stereo not shown) [Example 8]: the pEC50 was 6.57 on human PPARalpha and 5.60 on human PPARgamma.

As to `CC(C)Cc1ccc(C(C)C(=O)OCc2ccc(CC(SCCc3ccc(F)cc3)C(=O)O)cc2)cc1` (stereo not shown) [Example 9, 2-[2-(4-Fluoro-phenyl)-ethylsulfanyl]-3-{4-[2-(4-isobutyl-phenyl)-propionyloxymethyl]-phenyl}-propionic acid], the negative logarithm of the EC50 (pEC50) on human PPARalpha was 5.82; at human PPARgamma, 6.03.

Turning to `CN1CCN(CC(=O)OCc2ccc(CC(SCCc3ccc(F)cc3)C(=O)O)cc2)CC1` (stereo not shown) [Example 11, 2-[2-(4-Fluoro-phenyl)-ethylsulfanyl]-3-{4-[2-(4-methyl-piperazin-1-yl)-acetoxymethyl]-phenyl}-propionic acid], the pEC50 on human PPARalpha was 6.82; on human PPARgamma, 6.09.

Regarding `O=C(OCc1nc(-c2ccccc2)oc1C(F)(F)F)c1ccc(CC(SCCc2ccc(F)cc2)C(=O)O)cc1` (stereo not shown) [Example 12, 4-{2-Carboxy-2-[2-(4-fluoro-phenyl)-ethylsulfanyl]-ethyl}-benzoic acid 2-phenyl-5 trifluoromethyl-oxazol-4-ylmethyl ester], the pEC50 at human PPARgamma was 7.24.

Consider `O=C(OCc1ccc(CC(SCCc2ccc(F)cc2)C(=O)O)cc1)c1nc(-c2ccccc2)oc1C(F)(F)F` (stereo not shown) [Example 13, 2-Phenyl-5-trifluoromethyl-oxazole-4-carboxylic acid 4-{2-carboxy-2-[2-(4-fluoro-phenyl)-ethylsulfanyl]-ethyl}-benzyl ester], for which the negative-log EC50 (pEC50) was 7.92 on human PPARalpha and 7.52 on human PPARgamma.

For the molecule `Cc1oc(-c2ccccc2)nc1CCOC(=O)c1ccc(CC(SCCc2ccc(F)cc2)C(=O)O)cc1` (stereo not shown) [Example 14, 4-{2-Carboxy-2-[2-(4-fluoro-phenyl)-ethylsulfanyl]-ethyl}-benzoic acid 2-(5-methyl-2 phenyl-oxazol-4-yl)-ethyl ester], the negative logarithm of the EC50 (pEC50) at human PPARalpha was 5.85; at human PPARgamma it was 6.96.

As to `Cc1oc(-c2ccccc2)nc1CC(=O)OCc1ccc(CC(SCCc2ccc(F)cc2)C(=O)O)cc1` (stereo not shown) [Example 15, 2-[2-(4-Fluoro-phenyl)-ethylsulfanyl]-3-{4-[2-(5-methyl-2-phenyl-oxazol-4-yl)acetoxymethyl]-phenyl}-propionic acid], the pEC50 was 6.89 at human PPARalpha and 6.08 on human PPARgamma.

With `CS(=O)(=O)Oc1ccc(COC(=O)c2ccc(CC(SCCc3ccc(F)cc3)C(=O)O)cc2)cc1` (stereo not shown) [Example 16, 4-{2-Carboxy-2-[2-(4-fluoro-phenyl)-ethylsulfanyl]-ethyl}-benzoic acid 4-methanesulfonyloxy-benzyl ester], the pEC50 on human PPARalpha was 5.96.

In the case of `O=C(Cc1ccc(CC(C(=O)O)S(=O)(=O)CCc2ccc(F)cc2)cc1)OCc1ccc(C(F)(F)F)cc1` (stereo not shown) [Example 17, 2-[2-(4-Fluoro-phenyl)-ethanesulfonyl]-3-[4-(4-trifluoromethyl-benzyloxycarbonylmethyl)-phenyl]-propionic acid], the pEC50 at human PPARalpha was 5.36; on human PPARgamma, 4.74.

As to `CS(=O)(=O)Oc1ccc(CCSC(=O)c2ccc(CC(SCCc3ccc(F)cc3)C(=O)O)cc2)cc1` (stereo not shown) [Example 18, 2-[2-(4-Fluoro-phenyl)-ethylsulfanyl]-3-{4-[2-(4-methanesulfonyloxy-phenyl)-ethylsulfanylcarbonyl]-phenyl}-propionic acid], the pEC50 at human PPARalpha is 5.47.

With `CCO[C@@H](Cc1ccc(OC(=O)Cc2ccc(NC(=O)OC(C)(C)C)cc2)cc1)C(=O)O` [Example 22, (S)-3-{4-[2-(4-tert-Butoxycarbonylamino-phenyl)-acetoxy]-phenyl}-2-ethoxy-propionic acid], the pEC50 at human PPARalpha and at human PPARgamma was 4.74 throughout.

As to `CCOC(Cc1ccc(OC(=O)Cc2nc(-c3ccccc3)oc2C)c(Cc2ccccc2)c1)C(=O)O` (stereo not shown) [Example 23, 3-{3-Benzyl-4-[2-(5-methyl-2-phenyl-oxazol-4-yl)-acetoxy]-phenyl}-2-ethoxy-propionic acid], the pEC50 on human PPARgamma was 7.28.

For the molecule `CCOC(Cc1ccc(OC(=O)Cc2ccc(NC(=O)OC(C)(C)C)cc2)c(Cc2ccccc2)c1)C(=O)O` (stereo not shown) [Example 24, 3-{3-Benzyl-4-[2-(4-tert-butoxycarbonylamino-phenyl)-acetoxy]-phenyl}-2-ethoxy-propionic acid], the pEC50 on human PPARgamma is 8.28.

In the case of `CCOC(Cc1ccc(OC(=O)Cc2nc(-c3ccccc3)oc2C)c(C)c1)C(=O)O` (stereo not shown) [Example 25, 2-Ethoxy-3-{3-methyl-4-[2-(5-methyl-2-phenyl-oxazol-4-yl)-acetoxy]-phenyl}-propionic acid], the pEC50 at human PPARgamma was 7.37.

For `CCOC(Cc1ccc(OC(=O)Cc2ccc(NC(=O)OC(C)(C)C)cc2)c(C)c1)C(=O)O` (stereo not shown) [Example 26, 3-{4-[2-(4-tert-Butoxycarbonylamino-phenyl)-acetoxy]-3-methyl-phenyl}-2-ethoxy-propionic acid], the negative-log EC50 (pEC50) on human PPARgamma is 7.14.

As for `CCOC(Cc1ccc(C(=O)OCc2ccc(OS(C)(=O)=O)cc2)cc1)C(=O)O` (stereo not shown) [Example 27, 4-(2-Carboxy-2-ethoxy-ethyl)-benzoic acid 4-methanesulfonyloxy-benzyl ester], on human PPARgamma, the negative-log EC50 (pEC50) was 5.85.

Turning to `O=C(Cc1cccc(SCc2ccccc2C(=O)O)c1)OCc1ccc(C(F)(F)F)cc1` [Example 28, 2-[3-(4-Trifluoromethyl-benzyloxycarbonylmethyl)-phenylsulfanylmethyl]-benzoic acid], the figures for the pEC50 on human PPARalpha and at human PPARgamma were 5.89 and 5.60, respectively.

For `O=C(Cc1ccc(C(F)(F)F)cc1)OCc1ccc(SCc2ccccc2C(=O)O)cc1` [Example 29, 2-{4-[2-(4-Trifluoromethyl-phenyl)-acetoxymethyl]-phenylsulfanylmethyl}-benzoic acid], the negative logarithm of the EC50 (pEC50) at human PPARalpha is 7.54; on human PPARgamma it was 6.12.

For the molecule `O=C(Cc1ccc(SCc2ccccc2C(=O)O)cc1)OCc1ccc(C(F)(F)F)cc1` [Example 30, 2-[4-(4-Trifluoromethyl-benzyloxycarbonylmethyl)-phenylsulfanylmethyl]-benzoic acid], the results for the pEC50 at human PPARalpha and at human PPARgamma were 6.80 and 5.77, respectively.

As usually defined, the pEC50 is the negative decadic logarithm of the EC50, by convention in mol/L.
